Experimental data from article PMC12645191, “Dicarboxylate and dicarboxylic acid appended supramolecular self-associating amphiphiles as antimicrobial agents against high priority bacterial pathogens” (Organic & Biomolecular Chemistry, 2025).
In brackets after ≈: the same amount, converted by molar mass. Several values for one entry are separate records, joined by “and”; a condition that tells them apart may be missing. Identical values can stand only once. Marks after values point to notes of the source that are not given here.

Key:
[1] = kinetic solubility determination in PBS pH 7.4; conditions: pH 7.4, aqueous buffer, kinetic from dmso stock
E. coli NCTC 12923 = experiment: inhibition of bacterial growth, OD600 after 20 h; format: cell-based, Escherichia coli; conditions: SSA 5.0 mM, 2.5% ethanol, negative = enhanced growth
Description: (§1) With the self-associative properties of 1–10 established, the antimicrobial activity of these SSAs were determined against a panel of clinically relevant, high-priority pathogens including: P. aeruginosa PAO1; Klebsiella pneumonia (K. pneumoniae) M6; E. coli NCTC 12923; Acinetobacter baumannii (A. baumannii) ATCC 17978; S. aureus ATCC 9144; Enterococcus faecalis (E. faecalis) NCTC 775; and Enterococcus faecium (E. faecium) NCTC 12204. […] However, it should be noted that the SSA stock solution was prepared in a H2O 5% EtOH solution, to ensure that the SSA aggregates formed were in line with those characterised within the scope of the SSA self-association studies.
(§2) Section 3: Biological methods
(§3) These methods were taken directly from UK Health and Security Office (UKHSA) standard […]
(§4) Preparation of Luria Broth media (LB): Yeast extract (5.0 g), tryptone (10.0 g) and sodium chloride (10.0 g) were dissolved in dH₂O (1.0 L) then divided into bottles and autoclaved.
(§5) Preparation of Luria Broth (LB) agar plates: Agar (6.0 g) was added to LB (400 mL) and autoclaved. Once cool, the LB agar was poured into sterile petri dishes under sterile conditions and allowed to set. LB plates were stored at 4 °C until use.
(§6) Preparation of bacterial plates: Sterile LB agar plates were streaked using streaked using the desired bacteria i) Pseudomonas aeruginosa (P.aeruginosa) PAO1, ii) Klebsiella pneumoniae (K. pneumoniae) M6 iii) E. coli NCTC 12923 and iv) Acinetobacter baumannii (A. baumannii) ATCC 17978 and Gram-positive i) Staphylococcus aureus (S. aureus) ATCC 9144 ii) Enterococcus faecalis (E. faecalis) NCTC 775 and iii) Enterococcus faecium (E. faecium ) NCTC 12204, then incubated at 37 °C overnight.
(§7) Preparation of Inoculum: An initial culture was made up by inoculating LB media (5 mL) with a single colony of bacteria under sterile conditions and incubated at 37 °C with shaking overnight. The following day, overnight bacterial cultures were subcultured into fresh LB medium to a starting OD600 of 0.01.
(§8) Preparation of 96 well microplate for MIC50: The 1:100 cell suspension (150 µL) was dispensed into individual wells under sterile conditions. SSAs (30 µL) were added to the wells to equal a total volume of 180 µL in the wells. Six repeats of each concentration for each SSA were created each plate. The plates were sealed using parafilm, then incubated at 37 °C in a microplate reader for 20 hours. OD600 endpoint data was used to generate growth curves. […]

[2] = dynamic light scattering (DLS) of SSA aggregates; format: physicochemical; conditions: 5.6 mM, H2O 5.0% EtOH, 298 K
Description: Dynamic light scattering (DLS) and zeta potential measurements in H2O 5.0% EtOH were used to determine the hydrodynamic diameter (dH) and stability of the higher-order SSA aggregates detected by (Q) ^1H NMR spectroscopy at 5.6 mM, Table 1. […] However, we are unable to confidently report a dH for 1 due to the instability of this system, which is supported by a zeta potential value of −26 mV, obtained for this SSA under the same experimental conditions. […] Due to the instability of these systems in the absence of solvent, attempts to further characterise these systems through SEM or AFM are not possible.[48]

K. pneumoniae M6 = experiment: inhibition of bacterial growth, OD600 after 20 h; format: cell-based, Klebsiella pneumoniae; conditions: SSA 5.0 mM, 2.5% ethanol, negative = enhanced growth
Description: as §1, §2, §3, §4, §5, §6, §7, §8

P. aeruginosa PAO1 = experiment: inhibition of bacterial growth, OD600 after 20 h; format: cell-based, Pseudomonas aeruginosa; conditions: SSA 5.0 mM, 2.5% ethanol, negative = enhanced growth
Description: as §1, §2, §3, §4, §5, §6, §7, §8

E. faecium NCTC 12204 = experiment: inhibition of bacterial growth, OD600 after 20 h; format: cell-based, Enterococcus faecium; conditions: SSA 5.0 mM, 2.5% ethanol, negative = enhanced growth
Description: as §1, §2, §3, §4, §5, §6, §7, §8

E. faecalis NCTC 775 = experiment: inhibition of bacterial growth, OD600 after 20 h; format: cell-based, Enterococcus faecalis; conditions: SSA 5.0 mM, 2.5% ethanol, negative = enhanced growth; for inhibition at 5000 µM: Enterococcus faecalis, NCTC775, 20 h, read-out: Percentage inhibition of bacterial growth, NCTC 775 (E. faecalis)
Description: as §1, §2, §3, §4, §5, §6, §7, §8

S. aureus ATCC 9144 = experiment: inhibition of bacterial growth, OD600 after 20 h; format: cell-based, Staphylococcus aureus; conditions: SSA 5.0 mM, 2.5% ethanol, negative = enhanced growth
Description: as §1, §2, §3, §4, §5, §6, §7, §8

[3] = tensiometry: critical aggregate concentration (CAC) and surface tension; format: physicochemical; conditions: for Surface tension at CAC: H2O/5.0 % EtOH
Description: As the (Q) ^1H NMR spectroscopy experiments conducted at 5.6 mM in a D2O 5.0% EtOH solution confirmed the presence of higher-order self-associated structures with solid-like properties, concentration dependent surface tension measurements, obtained through tensiometry, were used to calculate critical aggregate concentration (CAC). Here the CAC is defined as the point at which an increase in SSA concentration no longer decreases surface tension but instead results in the formation of higher-order self-associated structures.

[4] = quantitative (Q) 1H NMR spectroscopy, proportion of SSA becoming NMR silent (higher-order aggregates); format: physicochemical; conditions: for (Q) 1H NMR spectroscopy, proportion NMR silent, acid or anion / (Q) 1H NMR spectroscopy, proportion NMR silent, cation: 5.6 mM, D2O 5.0% EtOH, 298 K; for (Q) 1H NMR, proportion NMR silent, SSA acid or anion / (Q) 1H NMR, proportion NMR silent, cation: ~112 mM, DMSO-d6 1.0% DCM
Description: To confirm the presence of higher order self-associative structures quantitative (Q) ^1H NMR spectroscopy studies were undertaken at 5.6 mM in D2O 5% EtOH. Here the ^1H NMR resonances attributed to the EtOH are used as an internal standard.
Table S1 – Overview of results of the quantitative (Q) 1H NMR studies for 1, 3, 5, 7 and 9
5.0 % EtOH . Values given in % represent the observed proportion of the SSA that has become
Table S2 – Overview of results of the quantitative (Q) 1H NMR studies for 2, 4, 6, 8 and 10
5.0 % EtOH. Values given in % represent the observed proportion of anion and cation that has

A. baumannii ATCC 17978 = experiment: inhibition of bacterial growth, OD600 after 20 h; format: cell-based, Acinetobacter baumannii; conditions: SSA 5.0 mM, 2.5% ethanol, negative = enhanced growth
Description: as §1, §2, §3, §4, §5, §6, §7, §8

## O=C(O)Cc1ccccc1Nc1c(Cl)cccc1Cl [Diclofenac, reference compound]
[1]; PBS, Solubility in PBS pH 7.4, kinetic, upper limit set at 300 µM
  solubility: 281 µM (≈ 83.2 µg/mL)

## CC(=O)[C@H]1CC[C@H]2[C@@H]3CCC4=CC(=O)CC[C@]4(C)[C@H]3CC[C@]12C [Progesterone, reference compound]
[1]
  solubility: 14.5 µM (≈ 4.57 µg/mL)

## COc1ccc(NC(=O)N[C@@H](CCC(=O)O)C(=O)O)cc1 [SSA 5]
E. coli NCTC 12923; listed as 5
  Percentage inhibition of bacterial growth, NCTC 12923 (E. coli): 70.96% and 71%
[2]; listed as 5
  DLS Peak 2 maxima: 1328 nm
  Polydispersity index (%): 22.7 (± 1.5) %
  dH (DLS intensity distribution peak 1 maxima): 153 nm
K. pneumoniae M6; Klebsiella pneumoniae, M6, 20 h, read-out: Percentage inhibition of bacterial growth, M6 (K. pneumoniae)
  inhibition at 5000 µM: 12.8%
K. pneumoniae M6; listed as 5
  Percentage inhibition of bacterial growth, M6 (K. pneumoniae): 13%
P. aeruginosa PAO1; listed as 5
  Percentage inhibition of bacterial growth, PAO1 (P. aeruginosa): 0%
E. faecium NCTC 12204; Enterococcus faecium, NCTC12204, 20 h, read-out: Percentage inhibition of bacterial growth, NCTC 12204 (E. faecium)
  inhibition at 5000 µM: 5.8%
E. faecium NCTC 12204; listed as 5
  Percentage inhibition of bacterial growth, NCTC 12204 (E. faecium): 6%
E. faecalis NCTC 775
  inhibition at 5000 µM: 13%
E. faecalis NCTC 775; listed as 5
  Percentage inhibition of bacterial growth, NCTC 775 (E. faecalis): 13%
S. aureus ATCC 9144; listed as 5
  Percentage inhibition of bacterial growth, ATCC 9144 (S. aureus): 12.67% and 13%
[3]; H2O 5.0% EtOH, 298 K
  ST at CAC: 58 mN m^−1
[3]; H2O 5.0% EtOH, 298 K, listed as 5
  CAC (footnote in place of a value): ^b (CAC above the limit of solubility)
[3]; listed as 5
  Surface tension at CAC: 58.22 mN/m
[4]; listed as 5
  (Q) 1H NMR spectroscopy, proportion NMR silent, acid or anion: 56%
[4]
  (Q) 1H NMR, proportion NMR silent, SSA acid or anion: 0%
A. baumannii ATCC 17978; listed as 5
  Percentage inhibition of bacterial growth, ATCC 17978 (A. baumannii): 18.61% and 19%

## COc1ccc(NC(=O)N[C@@H](CCC(=O)O)C(=O)O)cc1 [SSA 6]
E. coli NCTC 12923; listed as 6
  Percentage inhibition of bacterial growth, NCTC 12923 (E. coli): 32.77% and 33%
[2]; listed as 6
  DLS Peak 2 maxima: 5868 nm
  Polydispersity index (%): 21.5 (± 1.3) %
  dH (DLS intensity distribution peak 1 maxima): 164 nm
K. pneumoniae M6; listed as 6
  Percentage inhibition of bacterial growth, M6 (K. pneumoniae): 22.92% and 23%
P. aeruginosa PAO1; listed as 6
  Percentage inhibition of bacterial growth, PAO1 (P. aeruginosa): 29.42% and 29%
E. faecium NCTC 12204; listed as 6
  Percentage inhibition of bacterial growth, NCTC 12204 (E. faecium): 7.44% and 7%
E. faecalis NCTC 775; listed as 6
  Percentage inhibition of bacterial growth, NCTC 775 (E. faecalis): 7.71% and 8%
S. aureus ATCC 9144; listed as 6
  Percentage inhibition of bacterial growth, ATCC 9144 (S. aureus): 55.64% and 56%
[3]; H2O 5.0% EtOH, 298 K
  ST at the limit of solubility or 100 mM, whichever concentration is lower: 38 ^d mN m^−1
[3]; H2O 5.0% EtOH, 298 K, listed as 6
  CAC (footnote in place of a value): ^c (CAC is >100 mM)
[3]; listed as 6
  Surface tension at CAC: 38.24 mN/m
[4]; listed as 6
  (Q) 1H NMR spectroscopy, proportion NMR silent, acid or anion: 42%
  (Q) 1H NMR spectroscopy, proportion NMR silent, cation: 41.8% and 42%
[4]
  (Q) 1H NMR, proportion NMR silent, cation: 0%
A. baumannii ATCC 17978; listed as 6
  Percentage inhibition of bacterial growth, ATCC 17978 (A. baumannii): -28.50% and −29%

## COc1ccc(NC(=O)N[C@@H](CC(=O)O)C(=O)O)cc1 [SSA 7]
E. coli NCTC 12923; listed as 7
  Percentage inhibition of bacterial growth, NCTC 12923 (E. coli): 64.22% and 64%
[2]; listed as 7
  DLS Peak 2 maxima: 5177 nm
  Polydispersity index (%): 19.6 (± 1.7) %
  dH (DLS intensity distribution peak 1 maxima): 214 nm
K. pneumoniae M6; listed as 7
  Percentage inhibition of bacterial growth, M6 (K. pneumoniae): 32.42% and 32%
P. aeruginosa PAO1; listed as 7
  Percentage inhibition of bacterial growth, PAO1 (P. aeruginosa): -24.25% and −24%
E. faecium NCTC 12204; listed as 7
  Percentage inhibition of bacterial growth, NCTC 12204 (E. faecium): 50.11% and 50%
E. faecalis NCTC 775
  inhibition at 5000 µM: 47.2%
E. faecalis NCTC 775; listed as 7
  Percentage inhibition of bacterial growth, NCTC 775 (E. faecalis): 47%
S. aureus ATCC 9144; listed as 7
  Percentage inhibition of bacterial growth, ATCC 9144 (S. aureus): 5.65% and 6%
[3]; H2O 5.0% EtOH, 298 K
  CAC (footnote in place of a value): ^b (CAC above the limit of solubility)
[3]; H2O 5.0% EtOH, 298 K, listed as 7
  ST at CAC: 55 mN m^−1
[3]; listed as 7
  Surface tension at CAC: 54.72 mN/m
[4]
  (Q) 1H NMR, proportion NMR silent, SSA acid or anion: 0%
A. baumannii ATCC 17978; listed as 7
  Percentage inhibition of bacterial growth, ATCC 17978 (A. baumannii): 24.84% and 25%

## COc1ccc(NC(=O)N[C@@H](CC(=O)O)C(=O)O)cc1 [SSA 8]
E. coli NCTC 12923; listed as 8
  Percentage inhibition of bacterial growth, NCTC 12923 (E. coli): 39.33% and 39%
[2]; listed as 8
  DLS Peak 2 maxima: 3417 nm
  Polydispersity index (%): 25.6 (± 1.0) %
  dH (DLS intensity distribution peak 1 maxima): 313 nm
K. pneumoniae M6; listed as 8
  Percentage inhibition of bacterial growth, M6 (K. pneumoniae): 9.69% and 10%
P. aeruginosa PAO1; listed as 8
  Percentage inhibition of bacterial growth, PAO1 (P. aeruginosa): 37.24% and 37%
E. faecium NCTC 12204; listed as 8
  Percentage inhibition of bacterial growth, NCTC 12204 (E. faecium): -1.33% and −1%
E. faecalis NCTC 775; listed as 8
  Percentage inhibition of bacterial growth, NCTC 775 (E. faecalis): 38.33% and 38%
S. aureus ATCC 9144; listed as 8
  Percentage inhibition of bacterial growth, ATCC 9144 (S. aureus): 96.79% and 97%
[3]; H2O 5.0% EtOH, 298 K, listed as 8
  ST at CAC: 52 mN m^−1
[3]; listed as 8
  Surface tension at CAC: 51.98 mN/m
[4]
  (Q) 1H NMR spectroscopy, proportion NMR silent, acid or anion: 47%
  (Q) 1H NMR spectroscopy, proportion NMR silent, cation: 41.8% and 42%
  (Q) 1H NMR, proportion NMR silent, cation: 0%
A. baumannii ATCC 17978; listed as 8
  Percentage inhibition of bacterial growth, ATCC 17978 (A. baumannii): -20.26% and −20%
